Experimental data from PubChem BioAssay (NCI).
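Following 48 hours of exposure in 96-well plates, responses at five concentrations were used to interpolate endpoints linearly. GI50 marks 50% less growth. Definition used: TGI = concentration required for complete inhibition of growth.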

Key:
Experiment in all cases: inhibition of tumour cell growth, NCI panel, 48 h
PC-3 prostate = system: PC-3 prostate
MCF7 breast = system: MCF7 breast
HOP-92 NSCLC = system: HOP-92 NSCLC
786-0 renal = system: 786-0 renal
HS 578T breast = system: HS 578T breast
SR leukemia = system: SR leukemia
NCI-H226 lung = system: NCI-H226 lung
T-47D breast = system: T-47D breast
MDA-MB-231 breast = system: MDA-MB-231 breast
K-562 leukemia = system: K-562 leukemia
UO-31 renal = system: UO-31 renal
HOP-62 NSCLC = system: HOP-62 NSCLC
HCT-116 colon = system: HCT-116 colon
RPMI-8226 leukemia = system: RPMI-8226 leukemia
SNB-75 CNS = system: SNB-75 CNS
HT29 colon = system: HT29 colon
SF-295 CNS = system: SF-295 CNS
CAKI-1 renal = system: CAKI-1 renal
HL-60(TB) leukemia = system: HL-60(TB) leukemia
OVCAR-8 ovarian = system: OVCAR-8 ovarian
UACC-257 melanoma = system: UACC-257 melanoma
OVCAR-4 ovarian = system: OVCAR-4 ovarian
A549 NSCLC = system: A549 NSCLC
SK-MEL-2 melanoma = system: SK-MEL-2 melanoma
BT-549 breast = system: BT-549 breast
MOLT-4 leukemia = system: MOLT-4 leukemia
ACHN renal = system: ACHN renal
U251 CNS = system: U251 CNS
OVCAR-3 ovarian = system: OVCAR-3 ovarian
EKVX NSCLC = system: EKVX NSCLC
UACC-62 melanoma = system: UACC-62 melanoma
MALME-3M melanoma = system: MALME-3M melanoma
SK-MEL-5 melanoma = system: SK-MEL-5 melanoma
SK-OV-3 ovarian = system: SK-OV-3 ovarian
TK-10 renal = system: TK-10 renal
COLO 205 colon = system: COLO 205 colon
OVCAR-5 ovarian = system: OVCAR-5 ovarian
MDA-MB-435 = system: MDA-MB-435
SW-620 colon = system: SW-620 colon
SF-539 CNS = system: SF-539 CNS
SN12C renal = system: SN12C renal
RXF 393 renal = system: RXF 393 renal
CCRF-CEM leukemia = system: CCRF-CEM leukemia
DU-145 prostate = system: DU-145 prostate
SF-268 CNS = system: SF-268 CNS
M14 melanoma = system: M14 melanoma
NCI-H522 lung = system: NCI-H522 lung
IGROV1 ovarian = system: IGROV1 ovarian
NCI-H460 lung = system: NCI-H460 lung
NCI/ADR-RES ovarian = system: NCI/ADR-RES ovarian
LOX IMVI melanoma = system: LOX IMVI melanoma
SNB-19 CNS = system: SNB-19 CNS
HCT-15 colon = system: HCT-15 colon
A498 renal = system: A498 renal
KM12 colon = system: KM12 colon
HCC-2998 colon = system: HCC-2998 colon
SK-MEL-28 melanoma = system: SK-MEL-28 melanoma

CCc1cccc2c3c(sc12)C(c1ccc(OC)cc1)C(C#N)=C(/N=C/c1ccc(Cl)cc1)O3 (centres undefined)
GI50 (PC-3 prostate): 1.83 µM
TGI (PC-3 prostate): 22.1 µM
GI50 (MCF7 breast): 0.859 µM
TGI (MCF7 breast): 14.1 µM
GI50 (HOP-92 NSCLC): 5.48 µM
TGI (HOP-92 NSCLC): 53.3 µM
GI50 (786-0 renal): 2.2 µM
TGI (786-0 renal): 16.1 µM
GI50 (HS 578T breast): 1.9 µM
TGI (HS 578T breast): 7.8 µM
GI50 (SR leukemia): 0.361 µM
TGI (SR leukemia): 5.97 µM
GI50 (NCI-H226 lung): 2.59 µM
TGI (NCI-H226 lung): 13.1 µM
GI50 (T-47D breast): 2.43 µM
TGI (T-47D breast): > 100 µM
GI50 (MDA-MB-231 breast): 2.95 µM
TGI (MDA-MB-231 breast): 13.6 µM
GI50 (K-562 leukemia): 0.363 µM
TGI (K-562 leukemia): > 100 µM
GI50 (UO-31 renal): 1.85 µM
TGI (UO-31 renal): 49.6 µM
GI50 (HOP-62 NSCLC): 2.5 µM
TGI (HOP-62 NSCLC): 20.2 µM
GI50 (HCT-116 colon): 1.07 µM
TGI (HCT-116 colon): 10.3 µM
GI50 (RPMI-8226 leukemia): 2.28 µM
TGI (RPMI-8226 leukemia): 7.27 µM
GI50 (SNB-75 CNS): 1.35 µM
TGI (SNB-75 CNS): 15.3 µM
GI50 (HT29 colon): 2.31 µM
TGI (HT29 colon): 6.26 µM
GI50 (SF-295 CNS): 1.26 µM
TGI (SF-295 CNS): 15.5 µM
GI50 (CAKI-1 renal): 0.595 µM
TGI (CAKI-1 renal): 29.1 µM
GI50 (HL-60(TB) leukemia): 0.563 µM
TGI (HL-60(TB) leukemia): 5.98 µM
GI50 (OVCAR-8 ovarian): 2.15 µM
TGI (OVCAR-8 ovarian): 7.09 µM
GI50 (UACC-257 melanoma): 16.1 µM
TGI (UACC-257 melanoma): > 100 µM
GI50 (OVCAR-4 ovarian): 6.65 µM
TGI (OVCAR-4 ovarian): > 100 µM
GI50 (A549 NSCLC): 5.39 µM
TGI (A549 NSCLC): > 100 µM
GI50 (SK-MEL-2 melanoma): 0.987 µM
TGI (SK-MEL-2 melanoma): 5.95 µM
GI50 (BT-549 breast): 4.23 µM
TGI (BT-549 breast): 39.7 µM
GI50 (MOLT-4 leukemia): 2.25 µM
TGI (MOLT-4 leukemia): 17.1 µM
GI50 (ACHN renal): 3.16 µM
TGI (ACHN renal): 19.4 µM
GI50 (U251 CNS): 3 µM
TGI (U251 CNS): 13.8 µM
GI50 (OVCAR-3 ovarian): 0.554 µM
TGI (OVCAR-3 ovarian): 4.49 µM
GI50 (EKVX NSCLC): 5.94 µM
TGI (EKVX NSCLC): > 100 µM
GI50 (UACC-62 melanoma): 0.54 µM
TGI (UACC-62 melanoma): 30.5 µM
GI50 (MALME-3M melanoma): 0.921 µM
TGI (MALME-3M melanoma): 44.3 µM
GI50 (SK-MEL-5 melanoma): 2.81 µM
TGI (SK-MEL-5 melanoma): 11.8 µM
GI50 (SK-OV-3 ovarian): 2.42 µM
TGI (SK-OV-3 ovarian): 45.4 µM
GI50 (TK-10 renal): 20.5 µM
TGI (TK-10 renal): > 100 µM
GI50 (COLO 205 colon): 2.2 µM
TGI (COLO 205 colon): 5 µM
GI50 (OVCAR-5 ovarian): 3.97 µM
TGI (OVCAR-5 ovarian): 27.8 µM
GI50 (MDA-MB-435): 0.227 µM
TGI (MDA-MB-435): 0.578 µM
GI50 (SW-620 colon): 1.14 µM
TGI (SW-620 colon): 15.7 µM
GI50 (SF-539 CNS): 1.59 µM
TGI (SF-539 CNS): 4.29 µM
GI50 (SN12C renal): 3.76 µM
TGI (SN12C renal): 19.1 µM
GI50 (RXF 393 renal): 0.72 µM
TGI (RXF 393 renal): 2.56 µM
GI50 (CCRF-CEM leukemia): 0.792 µM
TGI (CCRF-CEM leukemia): 7.96 µM
GI50 (DU-145 prostate): 3.3 µM
TGI (DU-145 prostate): > 100 µM
GI50 (SF-268 CNS): 5.6 µM
TGI (SF-268 CNS): 44.4 µM
GI50 (M14 melanoma): 1.24 µM
TGI (M14 melanoma): 5.17 µM
GI50 (NCI-H522 lung): 0.78 µM
TGI (NCI-H522 lung): 2.7 µM
GI50 (IGROV1 ovarian): 1.67 µM
TGI (IGROV1 ovarian): > 100 µM
GI50 (NCI-H460 lung): 1.02 µM
TGI (NCI-H460 lung): 10.4 µM
GI50 (NCI/ADR-RES ovarian): 0.55 µM
TGI (NCI/ADR-RES ovarian): 4.7 µM
GI50 (LOX IMVI melanoma): 1.87 µM
TGI (LOX IMVI melanoma): 15 µM
GI50 (SNB-19 CNS): 3.56 µM
TGI (SNB-19 CNS): > 100 µM
GI50 (HCT-15 colon): 0.6 µM
TGI (HCT-15 colon): 11.2 µM
GI50 (A498 renal): 20.1 µM
TGI (A498 renal): > 100 µM
GI50 (KM12 colon): 2.06 µM
TGI (KM12 colon): 33.2 µM
GI50 (HCC-2998 colon): 1.79 µM
TGI (HCC-2998 colon): 4.57 µM
GI50 (SK-MEL-28 melanoma): 4.85 µM
TGI (SK-MEL-28 melanoma): 28 µM
